According to US8722849B2, “Polypeptides” (Novo Nordisk A/S, priority 2011, dated 2014):
Starred links: 1 amine or outer side, 2 acyl side, 3 side chain; linkers in the order of their positions; H or OH if unused. Positions of bridges follow the written chain, without caps; N, C: chain ends. Residues, ends and D or L forms follow the SMILES beside them. *: point of attachment. C20 diacid = O=C(O)CCCCCCCCCCCCCCCCCCC(=O)*; γGlu = O=C(O)[C@H](CCC(=O)[*:2])N[*:1]

Experiments:
food intake = assay: Assay (I) efficacy testing on appetite (food intake), ad libitum fed rat model; format: in vivo, Sprague Dawley (SD) rats
Excerpt: In the following examples reference is made to the following Assays: • Assay (I)— Experimental protocol for efficacy testing on appetite using an ad libitum fed rat model • ASSAY (II)a—Functional assay—Human calcitonin and amylin receptor assay • ASSAY (II)b—Functional assay—Rat calcitonin and rat amylin receptor assays • ASSAY (III)—ThT fibrillation assays for the assessment of physical stability of protein formulations • ASSAY (IV)—Determination of solubility • ASSAY (V)—Determination of binding to the human amylin receptor • ASSAY (VI)—Determination of the binding to the rat amylin receptor • ASSAY (VII)—Determination of binding to the human calcitonin receptor • ASSAY (VIII)—Determination of binding to the rat calcitonin receptor • ASSAY (IX)—pK—Determination of T % in mini-pig • ASSAY (X)—pK—Determination of T % in rat ASSAY (I)—Experimental Protocol for Efficacy Testing on Appetite Using an Ad Libitum Fed Rat Model
Sprague Dawley (SD) rats from Taconic Europe, Denmark are used for the experiments. The rats have a body weight 200-250 g at the start of experiment. The rats arrive at least 10-14 days before start of experiment to allow acclimatization to experimental settings. During this period the animals are handled at least 2 times. After arrival rats are housed individually for one week in a reversed light/dark phase (meaning that lights are off during daytime and on during nighttime) […]. Since rats are normally active and eat their major part of their daily food intake during the dark period, rats are dosed in the morning right before lights are turned off. This set-up results in the lowest data variation and highest test sensitivity. The experiment is conducted in the rats' home cages and rats have free access to food and water throughout the acclimatization period and the experiment period. Each dose of derivative is tested in a group of 5-8 rats. A vehicle group of 6-8 rats is included in each set of testing. Rats are dosed once according to body weight with a 0.01-3 mg/kg solution administered intraperitoneally (ip), orally (po) or subcutaneously (sc). The time of dosing is recorded for each group. After dosing, the rats are returned to their home cages, where they then have access to food and water. The food consumption is recorded individually continuously by on-line registration or manually every hour for 7 hours, and then after 24 h and sometimes 48 h. At the end of the experimental session, the animals are euthanised.
The individual data are recorded in Microsoft excel sheets. Outliers are excluded after applying the Grubbs statistical evaluation test for outliers, and the result is presented graphically using the GraphPad Prism program.

[1] = Assay (III) ThT fibrillation assay for physical stability; format: physicochemical
Outline: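 Freshly prepared formulations, pH-adjusted, with 1 μM ThT; four or eight replicates incubated at 37 °C under 960 rpm orbital shaking. Fluorescence (ex 444/em 485 nm) read every 20 min; […]. Peptide concentration measured by RP-HPLC before and after the run.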

Row | ThT pH 4.0 lag time ([1]; Table 8) [h] | ThT pH 4.0 lag time ([1]; Table 9) [h] | ThT pH 4.0 lag time ([1]; ThT fibrillation assay) [h] | ThT pH 4.0 lag time (h) ([1]; ThT fibrillation assay) | SMILES | Food intake reduction 0-24 h 3 nmol/kg (%) (food intake) | Food intake reduction 24-48 h 3 nmol/kg (%) (food intake) | Food intake reduction 0-24 h 30 nmol/kg (%) (food intake) | Food intake reduction 24-48 h 30 nmol/kg (%) (food intake)
1 | >45 | >45 | >45 | >45 | CC[C@H](C)[C@H](NC(=O)[C@@H]1CCCN1C(=O)CNC(=O)[C@H](Cc1ccccc1)NC(=O)[C@H](CC(N)=O)NC(=O)[C@H](CC(N)=O)NC(=O)[C@H](CO)NC(=O)[C@H](CO)NC(=O)[C@H](Cc1c[nH]cn1)NC(=O)[C@H](CCCNC(=N)N)NC(=O)[C@H](CC(C)C)NC(=O)[C@H](Cc1ccccc1)NC(=O)[C@H](CCC(=O)O)NC(=O)[C@H](C)NC(=O)[C@H](CC(C)C)NC(=O)[C@H](CCCNC(=N)N)NC(=O)[C@H](CCC(N)=O)NC(=O)[C@@H](NC(=O)[C@H](C)NC(=O)[C@@H]1CSSC[C@H](NC(=O)[C@H](CCCCN)NC(=O)CC[C@H](NC(=O)CCCCCCCCCCCCCCCCCCC(=O)O)C(=O)O)C(=O)N[C@@H](CC(N)=O)C(=O)N[C@@H]([C@@H](C)O)C(=O)N[C@@H](C)C(=O)N[C@@H]([C@@H](C)O)C(=O)N1)[C@@H](C)O)C(=O)N[C@@H](CC(C)C)C(=O)N1CCC[C@H]1C(=O)N1CCC[C@H]1C(=O)N[C@H](C(=O)N[C@@H](CC(N)=O)C(=O)N[C@H](C(=O)NCC(=O)N[C@@H](CO)C(=O)N[C@@H](Cc1c[nH]cn1)C(=O)N[C@H](C(=O)N[C@@H](Cc1ccc(O)cc1)C(N)=O)[C@@H](C)O)C(C)C)[C@@H](C)O [Example 57, N-alpha-[(S)-4-Carboxy-4-(19-carboxynonadecanoylamino)butyryl]-[Glu14,Arg17,His35]-pramlintide] ({C20 diacid-γGlu}-KCNTATCATQRLAEFLRHSSNNFGPILPPTNVGSHTY-NH2; disulfide 2-7 (inferred); C-terminus assumed) | 17 | 0 |  | 
2 | >45 | >45 | >45 | >45 | CC[C@H](C)[C@H](NC(=O)[C@@H]1CCCN1C(=O)CNC(=O)[C@H](Cc1ccccc1)NC(=O)[C@H](CO)NC(=O)[C@H](CO)NC(=O)[C@H](CO)NC(=O)[C@H](CO)NC(=O)[C@H](CCCNC(=N)N)NC(=O)[C@H](Cc1c[nH]cn1)NC(=O)[C@H](CC(C)C)NC(=O)[C@H](Cc1ccccc1)NC(=O)[C@H](CCC(=O)O)NC(=O)[C@H](C)NC(=O)[C@H](CC(C)C)NC(=O)[C@H](CCCNC(=N)N)NC(=O)[C@H](CCC(N)=O)NC(=O)[C@@H](NC(=O)[C@H](C)NC(=O)[C@@H]1CSSC[C@H](NC(=O)[C@H](Cc2c[nH]cn2)NC(=O)CC[C@H](NC(=O)CCCCCCCCCCCCCCCCCCC(=O)O)C(=O)O)C(=O)N[C@@H](CC(N)=O)C(=O)N[C@@H]([C@@H](C)O)C(=O)N[C@@H](C)C(=O)N[C@@H]([C@@H](C)O)C(=O)N1)[C@@H](C)O)C(=O)N[C@@H](CC(C)C)C(=O)N1CCC[C@H]1C(=O)N1CCC[C@H]1C(=O)N[C@H](C(=O)N[C@@H](CC(=O)O)C(=O)N[C@H](C(=O)NCC(=O)N[C@@H](CO)C(=O)N[C@@H](CC(=O)O)C(=O)N[C@H](C(=O)N[C@@H](Cc1ccc(O)cc1)C(N)=O)[C@@H](C)O)C(C)C)[C@@H](C)O [Example 9, N-alpha-[(S)-4-Carboxy-4-(19-carboxynonadecanoylamino)butyryl]-[His1,Glu14,His17,Arg18,Ser21,Ser22,Asp31,Asp35]-pramlintide] ({C20 diacid-γGlu}-HCNTATCATQRLAEFLHRSSSSFGPILPPTDVGSDTY-NH2; disulfide 2-7 (inferred); C-terminus assumed) | 39 | 32 |  | 
3 |  |  | >45 | >45 | CC[C@H](C)[C@H](NC(=O)[C@@H]1CCCN1C(=O)CNC(=O)[C@H](Cc1ccccc1)NC(=O)[C@H](CC(N)=O)NC(=O)[C@H](CC(N)=O)NC(=O)[C@H](CO)NC(=O)[C@H](CO)NC(=O)[C@H](Cc1c[nH]cn1)NC(=O)[C@H](CCCNC(=N)N)NC(=O)[C@H](CC(C)C)NC(=O)[C@H](Cc1ccccc1)NC(=O)[C@H](CCC(=O)O)NC(=O)[C@H](C)NC(=O)[C@H](CC(C)C)NC(=O)[C@H](CCCNC(=N)N)NC(=O)[C@H](CCC(N)=O)NC(=O)[C@@H](NC(=O)[C@H](C)NC(=O)[C@@H]1CSSC[C@H](NC(=O)[C@H](Cc2c[nH]cn2)NC(=O)[C@H](Cc2c[nH]cn2)NC(=O)[C@H](Cc2c[nH]cn2)NC(=O)CC[C@H](NC(=O)CCCCCCCCCCCCCCCCCCC(=O)O)C(=O)O)C(=O)N[C@@H](CC(N)=O)C(=O)N[C@@H]([C@@H](C)O)C(=O)N[C@@H](C)C(=O)N[C@@H]([C@@H](C)O)C(=O)N1)[C@@H](C)O)C(=O)N[C@@H](CC(C)C)C(=O)N1CCC[C@H]1C(=O)N1CCC[C@H]1C(=O)N[C@H](C(=O)N[C@@H](CC(N)=O)C(=O)N[C@H](C(=O)NCC(=O)N[C@@H](CO)C(=O)N[C@@H](CC(N)=O)C(=O)N[C@H](C(=O)N[C@@H](Cc1ccc(O)cc1)C(N)=O)[C@@H](C)O)C(C)C)[C@@H](C)O [Example 12, N-alpha-[(S)-4-Carboxy-4-(19-carboxynonadecanoylamino)butyryl]-His-His-[His1,Glu14,Arg17]-pramlintide] ({C20 diacid-γGlu}-HHHCNTATCATQRLAEFLRHSSNNFGPILPPTNVGSNTY-NH2; disulfide 4-9 (inferred); C-terminus assumed) |  |  | 70 | 45
4 |  |  |  | 7.4 | CC[C@H](C)[C@H](NC(=O)[C@@H]1CCCN1C(=O)CNC(=O)[C@H](Cc1ccccc1)NC(=O)[C@H](CC(N)=O)NC(=O)[C@H](CC(N)=O)NC(=O)[C@H](CO)NC(=O)[C@H](CO)NC(=O)[C@H](Cc1c[nH]cn1)NC(=O)[C@H](Cc1c[nH]cn1)NC(=O)[C@H](CC(C)C)NC(=O)[C@H](Cc1ccccc1)NC(=O)[C@H](CCC(=O)O)NC(=O)[C@H](C)NC(=O)[C@H](CC(C)C)NC(=O)[C@H](CCCNC(=N)N)NC(=O)[C@H](CCC(N)=O)NC(=O)[C@@H](NC(=O)[C@H](C)NC(=O)[C@@H]1CSSC[C@H](NC(=O)[C@H](Cc2c[nH]cn2)NC(=O)[C@H](Cc2c[nH]cn2)NC(=O)[C@H](Cc2c[nH]cn2)NC(=O)CC[C@H](NC(=O)CCCCCCCCCCCCCCCCCCC(=O)O)C(=O)O)C(=O)N[C@@H](CC(N)=O)C(=O)N[C@@H]([C@@H](C)O)C(=O)N[C@@H](C)C(=O)N[C@@H]([C@@H](C)O)C(=O)N1)[C@@H](C)O)C(=O)N[C@@H](CC(C)C)C(=O)N1CCC[C@H]1C(=O)N1CCC[C@H]1C(=O)N[C@H](C(=O)N[C@@H](CC(N)=O)C(=O)N[C@H](C(=O)NCC(=O)N[C@@H](CO)C(=O)N[C@@H](CC(N)=O)C(=O)N[C@H](C(=O)N[C@@H](Cc1ccc(O)cc1)C(N)=O)[C@@H](C)O)C(C)C)[C@@H](C)O [Example 11, N-alpha-[(S)-4-Carboxy-4-(19-carboxynonadecanoylamino)butyryl]-His-His-[His1,Glu14,His17]-pramlintide] ({C20 diacid-γGlu}-HHHCNTATCATQRLAEFLHHSSNNFGPILPPTNVGSNTY-NH2; disulfide 4-9 (inferred)) |  |  | 87 | 92
